Measurements as given in PMC7881012, “Human ACE2 peptide-mimics block SARS-CoV-2 pulmonary cells infection” (Communications Biology, 2021).
Read-outs that look alike come from different tables or passages of the source. Square brackets hold non-standard residues; d marks the D form. Ends that are not written are not given here. Peptide text beside a SMILES is read from it. hTyr = N[C@@H](CCc1ccc(O)cc1)C(=O)O

What was measured:
[1] = Helical content by circular dichroism; type: physicochemical; conditions: 60 µM peptide, 50 mM sodium phosphate buffer pH 7.4, 25 °C, DichroWeb CDSSTR deconvolution
Excerpt: The conformation of synthesized peptides in aqueous solution was investigated by circular dichroism (CD) spectroscopy. […] The deconvolution of the CD spectra using DichroWeb[25] allowed us to estimate the helical population for each peptide, which is reported in Table 1. Overall, an excellent agreement was observed between the Agadir-computed values and the experimental helical population inferred from CD data. […] The introduction of a proline residue in peptide P5 has a strong destabilizing effect on helical conformation (17%) whereas Leu/hTyr substitution only led to a slight decrease of the helical content (P7 versus P6 and P10 versus P8).
Fig. 2 Far-UV CD spectra of synthesized peptides. […] CD measurements are reported as molar ellipticity per residue.
CD spectra were recorded on a Jasco J-815 CD spectropolarimeter equipped with a Peltier temperature controller. Data were obtained at 25 °C over a wavelength range between 185 nm and 270 nm, using a wavelength interval of 0.2 nm and a scan rate of 20 nm min^−1. Peptide samples were prepared at a concentration of 60 µM in 50 mM sodium phosphate buffer, pH 7.4, in a quartz cell of 1 mm path length. CD experiments were processed and plotted with R program. CD spectra were analyzed using DICHROWEB web server and CDSSTR deconvolution algorithm.

[2] = HPLC retention time (LC-MS method B); type: physicochemical; conditions: method B: X-Select CSH C18 XP, 0.1% formic acid water/acetonitrile, 5-100% B in 3.2 min, 1.8 mL min^−1, 40 °C; used as indicator of hydrophobicity
Solubility (qualitative) = type: physicochemical; conditions: qualitative statement
[3] = tested on: SARS-CoV-2 clinical isolate SARS-CoV-2/PSL2020 in Vero-E6 cells; conditions: for % Inhibition of SARSCoV-2 replication at 10 μM: mean of at least three independent experiments; for % Inhibition, Moyenne / % Inhibition, Q2 (Median): clinical isolate /PSL2020 in Vero-E6 cells, 48 h, 10 µM
[4] = tested on: SARS-CoV-2 clinical isolate SARS-CoV-2/PSL2020 in Calu-3 cells; conditions: clinical isolate /PSL2020 in Calu-3 cells, 48 h
[5] = tested on: SARS-CoV-2 clinical isolate SARS-CoV-2/PSL2020 in Calu-3 cells; type: cell-based
[6] = target: SARS-CoV-2 spike RBD (Fc-tagged 2019-nCoV RBD-SD1) (Severe acute respiratory syndrome coronavirus 2, UniProt P0DTC2); assay: biochemical; type: binding; conditions: for kon: read-out: ka, association constant; for koff: read-out: kdis, dissociation constant
Vero-E6 cells [7] = conditions: for Cell viability (MTT): 72 h; for toxicity in Vero-E6: MTT 0.1-10 µM and annexin-V/PI 10 µM, 24, 48 or 72 h (Fig. 3c)
Vero-E6 cells [8] = conditions: 10 µM
Calu-3 cells [9] = conditions: 10 μM (150 times the IC50); MTT and annexin-V/PI, 24, 48 or 72 h (Fig. 3f)
Calu-3 cells [10] = tested on: Calu-3 cells
[11] = BLI EXP1, sample conc. ACE2 10 nM, P8 100 nM, P9 and P10 1000 nM
[12] = BLI EXP2, sample conc. ACE2 100 nM, P8 1000 nM, P9 and P10 1111 nM
[13] = BLI EXP3, sample conc. ACE2 100 nM, P9 10000 nM, P10 1000 nM
[14] = EXP1, peptide 10 µM, 24 h (0 µM: 16%)
[15] = EXP1, peptide 10 µM, 48 h (0 µM: 18%)
[16] = EXP1, peptide 10 µM, 72 h (0 µM: 23%)
[17] = EXP2, peptide 10 µM, 24 h (0 µM: 13%)
[18] = EXP2, peptide 10 µM, 48 h (0 µM: 17%)
[19] = EXP2, peptide 10 µM, 72 h (0 µM: 20%)
[20] = EXP3, peptide 10 µM, 24 h (Vehicle: 15%)
[21] = EXP3, peptide 10 µM, 48 h (Vehicle: 18%)
[22] = EXP3, peptide 10 µM, 72 h (Vehicle: 22%)

| Compound | Experimental helical content% [1] [%] | RT, HPLC retention time [2] | solubility (Solubility (qualitative)) | % Inhibition of SARSCoV-2 replication at 10 μM [3] [%] | % Inhibition, Moyenne [3] [%] | % Inhibition, Q2 (Median) [3] [%] | IC50 [4] [nM] | SARSCoV-2 virus titer at 1 μM (PFU mL^−1) on Calu-3 [5] [PFU mL^−1] | kon [6, 11] [M⁻¹ s⁻¹] | koff [6, 11] [s⁻¹] | kon [6, 12] [M⁻¹ s⁻¹] | koff [6, 12] [s⁻¹] | toxicity in Vero-E6 (Vero-E6 cells [7]) | Cell death (AnnV+PI) (Vero-E6 cells [8]; 24 h, EXP1, flow cytometry) [%] | Cell death (AnnV+PI) (Vero-E6 cells [8]; 24 h, EXP2, flow cytometry) [%] | Cell death (AnnV+PI) (Vero-E6 cells [8]; 24 h, EXP3, flow cytometry) [%] | Cell death (AnnV+PI) (Vero-E6 cells [8]; 48 h, EXP1, flow cytometry) [%] | Cell death (AnnV+PI) (Vero-E6 cells [8]; 48 h, EXP2, flow cytometry) [%] | Cell death (AnnV+PI) (Vero-E6 cells [8]; 48 h, EXP3, flow cytometry) [%] | Cell death (AnnV+PI) (Vero-E6 cells [8]; 72 h, EXP1, flow cytometry) [%] | other results |
| --- | --- | --- | --- | --- | --- | --- | --- | --- | --- | --- | --- | --- | --- | --- | --- | --- | --- | --- | --- | --- | --- |
| CC(C)C[C@H](NC(=O)[C@H](C)NC(=O)[C@H](CC(C)C)NC(=O)[C@H](C)NC(=O)[C@H](CC(C)C)NC(=O)[C@H](CCC(N)=O)NC(=O)[C@H](Cc1ccc(O)cc1)NC(=O)[C@H](CC(C)C)NC(=O)[C@H](CC(C)C)NC(=O)[C@H](CC(=O)O)NC(=O)[C@H](CCC(=O)O)NC(=O)[C@H](CC(C)C)NC(=O)[C@H](CCC(=O)O)NC(=O)[C@H](Cc1c[nH]cn1)NC(=O)[C@H](CC(C)C)NC(=O)[C@H](Cc1ccccc1)NC(=O)[C@H](CCCCN)NC(=O)[C@H](CC(=O)O)NC(=O)[C@H](CC(C)C)NC(=O)[C@H](Cc1ccccc1)NC(=O)[C@@H](NC(=O)[C@H](CCCCN)NC(=O)[C@H](CCc1ccc(O)cc1)NC(=O)[C@H](CCC(N)=O)NC(=O)[C@H](CCC(=O)O)NC(=O)[C@H](CCC(=O)O)NC(=O)[C@H](CC(C)C)NC(=O)[C@H](C)NC(=O)[C@@H](N)CO)[C@@H](C)O)C(N)=O [P7] (H-SALEEQ[hTyr]KTFLDKFLHELEDLLYQLALAL-NH2) | 63 | 2,57 min | slight increase in solubility | 54 | 53.7 | 43.4 | > 1000 | – | – | – | – | – | – | – | – | – | – | – | – | – | – |
| CSCC[C@H](NC(=O)[C@H](Cc1ccccc1)NC(=O)[C@H](CCCCN)NC(=O)[C@H](CC(=O)O)NC(=O)[C@H](CC(C)C)NC(=O)[C@H](Cc1ccccc1)NC(=O)[C@@H](NC(=O)[C@H](CCCCN)NC(=O)[C@H](CCc1ccc(O)cc1)NC(=O)[C@H](CCC(N)=O)NC(=O)[C@H](CCC(=O)O)NC(=O)[C@H](CCC(=O)O)NC(=O)[C@H](CC(C)C)NC(=O)[C@H](C)NC(=O)[C@@H](N)CO)[C@@H](C)O)C(=O)N[C@@H](Cc1c[nH]cn1)C(=O)N[C@@H](CCC(=O)O)C(=O)N[C@@H](CC(C)C)C(=O)N[C@@H](CCC(=O)O)C(=O)N[C@@H](CC(=O)O)C(=O)N[C@@H](CC(C)C)C(=O)N[C@@H](CC(C)C)C(=O)N[C@@H](Cc1ccc(O)cc1)C(=O)N[C@@H](CCC(N)=O)C(=O)N[C@@H](CC(C)C)C(=O)N[C@@H](C)C(=O)N[C@@H](CC(C)C)C(N)=O [P10] (H-SALEEQ[hTyr]KTFLDKFMHELEDLLYQLAL-NH2) | 56 | 2,34 min | – | 95 | 95.1 | 95.1 | 42 | 0 | 2490 | < 1e-07 | 1410 | < 1e-07 | devoid of toxicity | 4 | 5.38 | 5.49 | 7 | 5.69 | 6.33 | 4 | efficacy in reducing SARS-CoV-2 viral titers ([5]; pulmonary cells, 1 µM): 100%; kon [6, 13]: 1430 M⁻¹ s⁻¹; koff [6, 13]: < 1e-07 s⁻¹; Kd ([6]; Table 1 of the earlier manuscript version, quoted by Reviewer #2, superseded): < 1 nM; Cell viability (MTT) (Vero-E6 cells [7]; 1 µM): 96%; Cell death (AnnV+PI) (Vero-E6 cells [8]; 72 h, EXP2, flow cytometry): 2.55%; Cell death (AnnV+PI) (Vero-E6 cells [8]; 72 h, EXP3, flow cytometry): 3%; cytotoxicity in uninfected Calu-3 cells (Calu-3 cells [9]): no cytotoxicity; Cell death (AnnV+PI) (Calu-3 cells [10]; [14]): 23%; Cell death (AnnV+PI) (Calu-3 cells [10]; [15]): 19%; Cell death (AnnV+PI) (Calu-3 cells [10]; [16]): 23%; Cell death (AnnV+PI) (Calu-3 cells [10]; [17]): 17%; Cell death (AnnV+PI) (Calu-3 cells [10]; [18]): 20%; Cell death (AnnV+PI) (Calu-3 cells [10]; [19]): 22%; Cell death (AnnV+PI) (Calu-3 cells [10]; [20]): 19%; Cell death (AnnV+PI) (Calu-3 cells [10]; [21]): 19%; Cell death (AnnV+PI) (Calu-3 cells [10]; [22]): 19% |
| SALEEQLKTFLDKFMHELEDLLYQLAL-NH2 [P8] | 70 | 2,45 min | highly soluble | – | – | – | 46 | 0 | 5610 | 8.94e-05 | 4310 | 0.000137 | devoid of toxicity | 3.74 | 3.24 | 5 | 5.63 | 4.63 | 4.26 | 4 | Cell viability (MTT) (Vero-E6 cells [7]; 0.1 µM): 98%; Cell death (AnnV+PI) (Vero-E6 cells [8]; 72 h, EXP2, flow cytometry): 3%; Cell death (AnnV+PI) (Vero-E6 cells [8]; 72 h, EXP3, flow cytometry): 3.48%; cytotoxicity in uninfected Calu-3 cells (Calu-3 cells [9]): no cytotoxicity; Cell death (AnnV+PI) (Calu-3 cells [10]; [14]): 23%; Cell death (AnnV+PI) (Calu-3 cells [10]; [15]): 20%; Cell death (AnnV+PI) (Calu-3 cells [10]; [16]): 18%; Cell death (AnnV+PI) (Calu-3 cells [10]; [17]): 16%; Cell death (AnnV+PI) (Calu-3 cells [10]; [18]): 19%; Cell death (AnnV+PI) (Calu-3 cells [10]; [19]): 22%; Cell death (AnnV+PI) (Calu-3 cells [10]; [20]): 23%; Cell death (AnnV+PI) (Calu-3 cells [10]; [21]): 20%; Cell death (AnnV+PI) (Calu-3 cells [10]; [22]): 18% |
